{"source": "patent US9386767B2", "about": "“Derivatives of dillapiol and related monolignans and use thereof” (UNIVERSITY OF OTTAWA, priority 2011, dated 2016)", "key": {"[1]": {"molecular_target": "T1, human cytochrome CYP3A4 (Homo sapiens, UniProt P08684)", "T1 sequence (P08684 whole entry)": "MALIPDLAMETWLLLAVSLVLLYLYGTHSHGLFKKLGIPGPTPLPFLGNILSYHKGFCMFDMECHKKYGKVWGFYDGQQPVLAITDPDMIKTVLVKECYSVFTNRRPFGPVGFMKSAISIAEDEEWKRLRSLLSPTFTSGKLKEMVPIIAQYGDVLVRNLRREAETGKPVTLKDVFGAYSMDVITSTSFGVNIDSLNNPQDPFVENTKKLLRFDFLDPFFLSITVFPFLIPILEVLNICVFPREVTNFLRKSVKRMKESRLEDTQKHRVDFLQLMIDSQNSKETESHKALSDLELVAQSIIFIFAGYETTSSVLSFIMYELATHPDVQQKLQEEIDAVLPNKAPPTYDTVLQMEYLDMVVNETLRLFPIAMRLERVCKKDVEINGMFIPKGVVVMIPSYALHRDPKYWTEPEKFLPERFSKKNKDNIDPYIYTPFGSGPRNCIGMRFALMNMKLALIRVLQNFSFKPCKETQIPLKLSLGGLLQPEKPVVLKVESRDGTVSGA", "conditions": "Budzinski et al., 2000; cited from earlier work"}, "[2]": {"molecular_target": "T2, CYP3A4 (BDGentest) (Homo sapiens, UniProt P08684)", "T2 construct": "purchased BDGentest", "T2 sequence (P08684 whole entry)": "as above", "assay": "New CYP3A4 bioassay with dibenzylfluorescein (DBF) substrate (Foster et al. 2011)", "type": "biochemical", "conditions": "for % Activity relative to dillapiol = 1: new CYP3A4 bioassay, inhibition relative to dillapiol; for IC50: DBF substrate 1 μM, read-out: IC50 (converted)", "procedure": "(§1) In the second set of experiments, new CYP3A4 enzyme inhibition assays were conducted with a designed set of analogs and newer method described by Foster et al. (J. Agric. Food Chem, 2011, 59(9):5159-5163). This assay using the substrate dibenzylfluorescein (DBF) is considered more representative of CYP3A4 activity as compared to the benzyloxyresorufin assay previously used (Budzinski et al., 2000, Phytomedicine, 7(4):273-282).\n(§2) Aliquots (10 μL) of stock solutions of the undiluted products were screened for their ability to inhibit CYP3A4 (BDGentest) metabolism of the non-fluorescent dibenzylfluorescein (DBF) substrates to the fluorescent metabolite using an in vitro fluorometric microtiter plate assay (CytoFluor Series 4000 multi-well plate reader). Briefly, assays were performed with 10 μL of product in clear-bottom, opaque-welled microtiter plates (96 well, Corning Costar). Control and control blank wells contained 5% ethanol, and test and test blank wells contained the product. All wells tested contained distilled water, β-nicotinamide adenine dinucleotide phosphate, reduced form (NADPH, Sigma Chemicals), and the enzyme substrate DBF (final concentration of 1 μM/well), for a total reaction volume of 200 μL. Control and test wells also contained live isozyme, within human microsomes, in phosphate buffer solution (PBS; 0.5 M, pH 7.4), and control blank and test blank wells contained denatured isoenzyme in PBS. Fluorescence was measured at 485 nm excitation and 530 nm emission, with a gain of 50."}, "[3]": {"tested_on": "mosquito larvae", "conditions": "co-administration of dillapiol with alpha-terthienyl; increased toxicity in mosquito larvae; cited from earlier work"}, "[4]": {"molecular_target": "T1, human cytochrome CYP3A4", "assay": "CYP3A4 inhibition assay of dillapiol derivatives (earlier benzyloxyresorufin assay)", "type": "biochemical", "conditions": "for Rel. Activity Dillapiol = 1.0: CYP3A4 inhibition relative to dillapiol", "procedure": "A suite of dillapiol derivatives were synthesized and assayed for their capacity to inhibit human cytochrome CYP3A4. For each molecule, experimental IC50 values for CYP3A4 inhibition were determined. These IC50 values together with the log of the octanol-water partition coefficient (logP) and molecular refractivity (MR) are shown in Table 1, and were used as parameters to model a quantitative structure-activity relationship (QSAR). The resulting equations were used to guide the design of further derivatives with enhanced CYP3A4 inhibition.\nas §1"}, "[5]": {"tested_on": "parasitemia", "conditions": "co-administration of dillapiol with genudin, mice; cited from earlier work"}, "[6]": {"molecular_target": "T3, CYP3A4 (Homo sapiens, UniProt P08684)", "T3 construct": "purchased BDGentest", "T3 sequence (P08684 whole entry)": "as above", "assay": "New CYP3A4 bioassay with dibenzylfluorescein (DBF) substrate (Foster et al. 2011)", "type": "biochemical", "conditions": "human, CYP3A4 (BDGentest) isozyme within human microsomes, pH 7.4, probe dibenzylfluorescein (DBF), 1 μM final, DBF substrate 1 μM, human microsomes", "procedure": "as §1, §2"}, "[7]": {"conditions": "Table 1, CYP3A4 inhibition, read-out: IC50"}}, "note": "pIC50: −log10 of the molar value. Where “and” joins values, the source holds several entries; their conditions need not be identical. Equal entries are not always repeated. Where two headings read alike, the source gives them in different places.", "data": [{"smiles": "C=CCc1cc2c(c(OC)c1OC)OCO2", "note": "[dillapiol, 4,5 dimethoxy-6-(2-propenyl)-1,3-benzodioxole]", "values": [{"measurement": "inhibition of human cytochrome P450 3A4 (in words)", "setting": "[1]", "result": "inhibits the human cytochrome P450 3A4 (CYP3A4) enzyme"}, {"measurement": "pIC50", "setting": "[2]; IC50, DBF substrate 1 μM, human microsomes", "result": 5.02}, {"measurement": "% Activity relative to dillapiol = 1", "setting": "[2]", "result": 1}, {"measurement": "synergism factor", "setting": "[3]", "result": 1.9}, {"measurement": "pIC50", "setting": "[4]", "result": 3.39}, {"measurement": "Rel. Activity Dillapiol = 1.0", "setting": "[4]; Table 1", "result": 1.0}, {"measurement": "increase of parasitemia clearance", "setting": "[5]", "result": 29, "unit": "%"}]}, {"smiles": "C=CCc1cc2c(c(C=O)c1OC)OCO2", "note": "[Compound 8]", "values": [{"measurement": "Rel. Activity Dillapiol = 1.0", "setting": "[4]; Table 1", "result": 0.66}, {"measurement": "pIC50", "setting": "[4]; [7]", "result": 3.21}]}, {"smiles": "C=CCc1cc2c(c(Sc3ccc(OC)cc3)c1OC)OCO2", "note": "[Compound 22]", "values": [{"measurement": "Rel. Activity Dillapiol = 1.0", "setting": "[4]; Table 1", "result": 0.67}, {"measurement": "pIC50", "setting": "[4]; [7]", "result": 3.18}]}, {"smiles": "C=CCc1cc2c(c(CC=C)c1OC)OCO2", "note": "[Compound 9]", "values": [{"measurement": "pIC50", "setting": "[4]", "result": 3.09}, {"measurement": "Rel. Activity Dillapiol = 1.0", "setting": "[4]; Table 1", "result": 2.0}]}, {"smiles": "COc1c(/C=C/CC(O)(c2ccccc2)c2ccccc2)cc2c(c1OC)OCO2", "note": "[Compound 1]", "values": [{"measurement": "CYP3A4 inhibition (in words)", "setting": "[2]", "result": "increased inhibition of CYP3A4 compared to dillapiol"}, {"measurement": "IC50", "setting": "[2]; human microsomes", "result": 1.58, "unit": "µM"}, {"measurement": "% Activity relative to dillapiol = 1", "setting": "[2]", "result": 5.8}, {"measurement": "CYP3A4 inhibition compared with dillapiol (in words)", "setting": "[4]; Table 1", "result": "at least four times lower than dillapiol"}, {"measurement": "Rel. Activity Dillapiol = 1.0", "setting": "[4]; Table 1", "result": "100 and 114"}, {"measurement": "pIC50", "setting": "[4]; [7]", "result": 5.44}]}, {"smiles": "COc1c(CCCO)cc2c(c1OC)OCO2", "values": [{"measurement": "pIC50", "setting": "[6]", "result": 4.80}, {"measurement": "IC50", "setting": "[2]; human microsomes", "result": 16.6, "unit": "µM"}, {"measurement": "% Activity relative to dillapiol = 1", "setting": "[2]", "result": 0.57}]}, {"smiles": "C=CCc1cc2c(c(SCc3ccccc3)c1O)OCO2", "note": "[Compound 24]", "values": [{"measurement": "Rel. Activity Dillapiol = 1.0", "setting": "[4]; Table 1", "result": 1.6}]}, {"smiles": "C=CCc1cc2c(c(CC=C)c1O)OCO2", "note": "[Compound 11]", "values": [{"measurement": "Rel. Activity Dillapiol = 1.0", "setting": "[4]; Table 1", "result": 1.9}, {"measurement": "pIC50", "setting": "[4]; [7]", "result": 3.68}]}, {"smiles": "C=CCc1cc2c(c(SCc3ccccc3)c1OC)OCO2", "note": "[Compound 25]", "values": [{"measurement": "CYP3A4 inhibition compared with dillapiol (in words)", "setting": "[4]; Table 1", "result": "at least four times lower than dillapiol"}, {"measurement": "Rel. Activity Dillapiol = 1.0", "setting": "[4]; Table 1", "result": "9 and 9.3"}, {"measurement": "pIC50", "setting": "[4]; [7]", "result": 4.36}]}, {"smiles": "C=CCc1cc2c(c(SC)c1O)OCO2", "note": "[Compound 19]", "values": [{"measurement": "Rel. Activity Dillapiol = 1.0", "setting": "[4]; Table 1", "result": 1.0}, {"measurement": "pIC50", "setting": "[4]; [7]", "result": 3.38}]}, {"smiles": "C=CCc1cc2c(c(COCC(=O)OCC)c1OC)OCO2", "note": "[Compound 13]", "values": [{"measurement": "CYP3A4 inhibition compared with dillapiol (in words)", "setting": "[4]; Table 1", "result": "at least four times lower than dillapiol"}, {"measurement": "Rel. Activity Dillapiol = 1.0", "setting": "[4]; Table 1", "result": 4.2}, {"measurement": "pIC50", "setting": "[4]; [7]", "result": 4.01}]}, {"smiles": "C=CCc1cc2c(c(S(=O)(=O)c3ccc(OC)cc3)c1O)OCO2", "note": "[Compound 23]", "values": [{"measurement": "Rel. Activity Dillapiol = 1.0", "setting": "[4]; Table 1", "result": 1.8}, {"measurement": "pIC50", "setting": "[4]; [7]", "result": 3.64}]}, {"smiles": "C=CCc1cc2c(c([S+]([O-])Cc3ccccc3)c1OC)OCO2", "note": "(stereo not shown) [Compound 27]", "values": [{"measurement": "CYP3A4 inhibition compared with dillapiol (in words)", "setting": "[4]; Table 1", "result": "at least four times lower than dillapiol"}, {"measurement": "Rel. Activity Dillapiol = 1.0", "setting": "[4]; Table 1", "result": 6.4}, {"measurement": "pIC50", "setting": "[4]; [7]", "result": 4.19}]}, {"smiles": "C=CCc1cc2c(cc1O)OCO2", "note": "[Compound 14]", "values": [{"measurement": "Rel. Activity Dillapiol = 1.0", "setting": "[4]; Table 1", "result": 0.75}, {"measurement": "pIC50", "setting": "[4]; [7]", "result": 3.26}]}, {"smiles": "C=CCc1cc2c(c(CO)c1OC)OCO2", "note": "[Compound 4]", "values": [{"measurement": "Rel. Activity Dillapiol = 1.0", "setting": "[4]; Table 1", "result": 0.45}, {"measurement": "pIC50", "setting": "[4]; [7]", "result": 3.05}]}, {"smiles": "C=CCc1cc2c(c(O)c1OC)OCO2", "note": "[Compound 10]", "values": [{"measurement": "pIC50", "setting": "[4]", "result": 2.80}, {"measurement": "Rel. Activity Dillapiol = 1.0", "setting": "[4]; Table 1", "result": 0.26}]}, {"smiles": "COc1c(CCCOC(=O)c2ccccc2)cc2c(c1OC)OCO2", "note": "[Compound 12]", "values": [{"measurement": "CYP3A4 inhibition (in words)", "setting": "[2]", "result": "increased inhibition of CYP3A4 compared to dillapiol"}, {"measurement": "IC50", "setting": "[2]; human microsomes", "result": "2.1 µM and 2.11 µM"}, {"measurement": "% Activity relative to dillapiol = 1", "setting": "[2]", "result": 4.4}, {"measurement": "CYP3A4 inhibition compared with dillapiol (in words)", "setting": "[4]; Table 1", "result": "at least four times lower than dillapiol"}, {"measurement": "Rel. Activity Dillapiol = 1.0", "setting": "[4]; Table 1", "result": 29}, {"measurement": "pIC50", "setting": "[4]; [7]", "result": 4.85}]}, {"smiles": "C=CCc1cc2c(c(SC)c1OC)OCO2", "note": "[Compound 18]", "values": [{"measurement": "pIC50", "setting": "[4]", "result": 3.49}, {"measurement": "Rel. Activity Dillapiol = 1.0", "setting": "[4]; Table 1", "result": 1.3}]}]}
